From patent US6392085B1, “Therapeutic nucleosides” (SmithKline Beecham Corporation, priority 1992, dated 2002)
Like-named read-outs stand apart in the source and are kept apart here.

How the values were obtained:
[1] = tested on: human bon marrow progenitor cells (CFU-GM); assay: Toxicity in human bone marrow progenitor cells in vitro, CFU-GM; type: cell-based
Experimental: (§1) Compounds of formula (I) were tested fortoxicity in human bon marrow progenitor cells, in vitro, by the method of Dornsife, R. E. et at., 1991, Antimicrob. Agents Chemother., 35: 322-328. Three separate assays were performed using marrow from three different donors.

[2] = tested on: human bon marrow progenitor cells (BFU-E); assay: Toxicity in human bone marrow progenitor cells in vitro, BFU-E; type: cell-based; conditions: 50% inhibition of bone marrow progenitor cells; three assays, marrow from three donors
Experimental: as §1

[3] = tested on: hepatitis B viral replication; conditions: Proc. Natl. Acad. Sci. USA 1989, 86, 8541-8544; cited from earlier work
[4] = tested on: herpes simplex virus type 1 (HSV-1); conditions: J. Med. Chem. 1987, 30, 746-749; Biochem. Pharmacol. 1990, 40, 1515-1522; especially the (+)-enantiomer; cited from earlier work
[5] = tested on: Human cytomegalovirus (HCMV); assay: Anti-HCMV plaque reduction assay in monolayers of MRCS cells (human embryonic lung); type: cell-based; conditions: Human betaherpesvirus 5, 50% inhibitory concentration estimated from dose-response curve
Experimental: Human cytomegalovirus (HCMV) is assayed in monolayers of MRCS cells (human embryonic lung) in multiwell trays. Activity of compounds is determined in the plaque reduction assay, in which a cell monolayer is infected with a suspension of HCMV. A range of concentrations of the compound to be tested (of known moiarity) is then incorporated into the carboxymethyl cellulose overlay. Plaque numbers of each concentration are expressed as percentage of the control and a dose-response curve is drawn. From this curve the 50% inhibitory concentration (IC50) is estimated.

[6] = 50% inhibition of bone marrow progenitor cells, three assays, marrow from three donors

Compound | melting point | Cell Toxicity I50 CFU-GM [1] | Cell Toxicity I50 BFU-E [2] | inhibition of hepatitis B viral replication [3] | activity against HSV-1 [4] | IC50 [5] | Cell Toxicity I50 CFU-GM [1, 6]
Nc1nc2c(ncn2[C@@H]2C[C@H](CO)[C@@H](O)C2)c(=O)[nH]1 (relative stereo) [2′-CDG, (1R*, 3S*, 4R)-2-amino-1,9-dihydro-9-[3-hydroxy-4-hydroxymethyl)cyclopentyl]-6H-purine-6-one, reference compound] | – | 0.4 ± 0.3 µM | 4 ± 2 µM | inhibits hepatitis B viral replication | active against herpes simplex virus type 1 | – | –
Nc1nc(NCC2CC2)c2ncn([C@@H]3C[C@H](CO)[C@@H](O)C3)c2n1 (racemic) [Ex. 22, (±) (1S, 2R, 4R)-4-[2-Amino-6-(cyclopropylmethylamino)-9H-purin-9-yl]-2-(hydroxymethyl)-1-cyclopentanol] | – | – | >>50 μM | – | – | 3100 nM | 34 ± 14 µM
Nc1nc(NC2CC2)c2ncn([C@@H]3C[C@H](CO)[C@@H](O)C3)c2n1 (stereo in doubt) [Ex. 23, (±)-(1S, 2R, 4R)-4-[2-Amino-6-(cyclopropylamino)-9H-purin-9-yl]-2-(hydroxymethyl)-1-cyclopentanol] | 174 to 176 °C | – | 55 ± 15 µM | – | – | 2800 nM | 14 ± 1 µM

Second part, led by results:

melting point | Compound | Cell Toxicity I50 CFU-GM [1] | Cell Toxicity I50 BFU-E [2] | inhibition of hepatitis B viral replication [3] | activity against HSV-1 [4] | IC50 [5] | Cell Toxicity I50 CFU-GM [1, 6]
> 250 °C | Cl.Cl.Nc1nc(NC2CC2)c2ncn([C@H]3C[C@@H](CO)[C@H](O)C3)c2n1 (stereo in doubt) | – | – | – | – | – | –
181 to 182 °C | Nc1nc(OC2CCCC2)c2ncn([C@@H]3C[C@H](CO)[C@@H](O)C3)c2n1 (racemic) [Example 28, (±)-(1S, 2R, 4R)-4-(2-Amino-6-(cyclopentyloxy)-9H-purin-9-yl)-2-(hydroxymethyl)-1-cyclopentanol] | – | – | – | – | – | –
